From ChEMBL document CHEMBL1148179, “Structural revisions of some non-adjacent bis-tetrahydrofuran annonaceous acetogenins” (1993)
Values after ≈ are worked out from the molar mass of the structure shown.

What was measured:
Type in all cases: functional
[1] = tested on: A549; assay: Cytotoxicity against human A549 cells
[2] = tested on: MCF7; assay: Cytotoxicity against human MCF7 cells; conditions: read-out: ED50 (the source's name)
[3] = tested on: HT-29; assay: Cytotoxicity against human HT-29 cells; conditions: read-out: ED50 (the source's name)

SMILES	ED50 [1]	EC50 [2] [µg/mL]	EC50 [3] [µg/mL]
CCCCCC[C@H](O)CCC[C@H](O)[C@H]1CC[C@H]([C@H]2CC(O)[C@H]([C@H](O)CCCCCCCCCCCCC3=C[C@H](C)OC3=O)O2)O1 (stereo partly specified) [ANNONIN XVI]	<1 ×10⁻⁸ ug/ml	1.46 (≈ 2.29 µM)	1.42 (≈ 2.22 µM)
COc1cccc2c1C(=O)c1c(O)c3c(c(O)c1C2=O)C[C@@](O)(C(=O)CO)C[C@@H]3O[C@H]1C[C@H](N)[C@H](O)[C@H](C)O1 [DOXORUBICIN]	2.08 ×10⁻⁴ ug/ml	0.0913 (≈ 0.168 µM)	0.0013 (≈ 0.00239 µM)
